Patent publication US6645918B1, “N-([1,2,4]triazoloazinyl)thiophenesulfonamide compounds and their use as herbicides” (Dow AgroSciences LLC, priority 2000, dated 2003)

Key:
[1] = system: velvetleaf (Abutilion theophrasti); test: Postemergence herbicidal activity, velvetleaf; format: in vivo; details: foliar spray, visual after 2 weeks, 0 no injury, 100 complete kill
In short: (§1)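 Postemergence foliar spray to pots at 1st–2nd true leaf, grown 7–21 d at ~23–29 °C day. Spray carrier: acetone/water/IPA/DMSO/crop oil/Triton X-155; 1 ppm ≈ 1 g/ha. Read-out: visual injury 0 (none) to 100% (complete kill), 2 wk.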

[2] = system: viola (Viola tricolor); test: Postemergence herbicidal activity, viola; format: in vivo; details: foliar spray, visual after 2 weeks, 0 no injury, 100 complete kill
In short: as §1

[3] = system: morningglory (Ipomoea hederacea); test: Preemergence herbicidal activity, morningglory; format: in vivo; details: soil spray, visual after 3 weeks, 0 no injury, 100 complete kill or no germination
In short: (§2)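 Visual injury score (0% = none, 100% = complete kill or no germination) vs untreated controls at 3 weeks. Pre-emergence soil spray on seeded pots, max 4.48 kg/ha. Greenhouse: ~15 h photoperiod, day 23-29 °C, night 22-28 °C, top-irrigated.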

[4] = system: Rox orange sorghum (Sorghum bicolor); test: Preemergence herbicidal activity, Rox orange sorghum; format: in vivo; details: soil spray, visual after 3 weeks, 0 no injury, 100 complete kill or no germination
In short: as §2

[5] = system: blackgrass (Alopecurus myosuroides); test: Postemergence herbicidal activity, blackgrass; format: in vivo; details: foliar spray, visual after 2 weeks, 0 no injury, 100 complete kill
In short: as §1

[6] = system: crabgrass (Digitaria sanguinalis); test: Preemergence herbicidal activity, crabgrass; format: in vivo; details: soil spray, visual after 3 weeks, 0 no injury, 100 complete kill or no germination
In short: as §2

[7] = system: cocklebur (Xanthium strumarium); test: Preemergence herbicidal activity, cocklebur; format: in vivo; details: soil spray, visual after 3 weeks, 0 no injury, 100 complete kill or no germination
In short: as §2

[8] = system: wild poinsettia (Euphorbia heterophylla); test: Preemergence herbicidal activity, wild poinsettia; format: in vivo; details: soil spray, visual after 3 weeks, 0 no injury, 100 complete kill or no germination
In short: as §2

[9] = system: pigweed (Amaranthus retroflexus); test: Postemergence herbicidal activity, pigweed; format: in vivo; details: foliar spray, visual after 2 weeks, 0 no injury, 100 complete kill
In short: as §1

[10] = system: chickweed (Stellaria media); test: Postemergence herbicidal activity, chickweed; format: in vivo; details: foliar spray, visual after 2 weeks, 0 no injury, 100 complete kill
In short: as §1

[11] = system: wild buckwheat (Polygonum convolvulus); test: Postemergence herbicidal activity, wild buckwheat; format: in vivo; details: foliar spray, visual after 2 weeks, 0 no injury, 100 complete kill
In short: as §1

[12] = system: morningglory (Ipomoea hederacea); test: Postemergence herbicidal activity, morningglory; format: in vivo; details: foliar spray, visual after 2 weeks, 0 no injury, 100 complete kill
In short: as §1

[13] = system: barnyardgrass (Echinochloa crus-galli); test: Preemergence herbicidal activity, barnyardgrass; format: in vivo; details: soil spray, visual after 3 weeks, 0 no injury, 100 complete kill or no germination
In short: as §2

[14] = system: cocklebur (Xanthium strumarium); test: Postemergence herbicidal activity, cocklebur; format: in vivo; details: foliar spray, visual after 2 weeks, 0 no injury, 100 complete kill
In short: as §1

[15] = system: wild oats (Avena fatua); test: Preemergence herbicidal activity, wild oats; format: in vivo; details: soil spray, visual after 3 weeks, 0 no injury, 100 complete kill or no germination
In short: as §2

[16] = system: lambsquarters (Chenopodium album); test: Preemergence herbicidal activity, lambsquarters; format: in vivo; details: soil spray, visual after 3 weeks, 0 no injury, 100 complete kill or no germination
In short: as §2

[17] = system: giant foxtail (Setaria faberi); test: Postemergence herbicidal activity, giant foxtail; format: in vivo; details: foliar spray, visual after 2 weeks, 0 no injury, 100 complete kill
In short: as §1

[18] = system: giant foxtail (Setaria faberi); test: Preemergence herbicidal activity, giant foxtail; format: in vivo; details: soil spray, visual after 3 weeks, 0 no injury, 100 complete kill or no germination
In short: as §2

[19] = system: Rox orange sorghum (Sorghum bicolor); test: Postemergence herbicidal activity, Rox orange sorghum; format: in vivo; details: foliar spray, visual after 2 weeks, 0 no injury, 100 complete kill
In short: as §1

[20] = system: lambsquarters (Chenopodium album); test: Postemergence herbicidal activity, lambsquarters; format: in vivo; details: foliar spray, visual after 2 weeks, 0 no injury, 100 complete kill
In short: as §1

[21] = system: blackgrass (Alopecurus myosuroides); test: Preemergence herbicidal activity, blackgrass; format: in vivo; details: soil spray, visual after 3 weeks, 0 no injury, 100 complete kill or no germination
In short: as §2

[22] = system: velvetleaf (Abutilion theophrasti); test: Preemergence herbicidal activity, velvetleaf; format: in vivo; details: soil spray, visual after 3 weeks, 0 no injury, 100 complete kill or no germination
In short: as §2

[23] = system: wild oats (Avena fatua); test: Postemergence herbicidal activity, wild oats; format: in vivo; details: foliar spray, visual after 2 weeks, 0 no injury, 100 complete kill
In short: as §1

[24] = system: pigweed (Amaranthus retroflexus); test: Preemergence herbicidal activity, pigweed; format: in vivo; details: soil spray, visual after 3 weeks, 0 no injury, 100 complete kill or no germination
In short: as §2

**Q.** With COc1ccsc1S(=O)(=O)Nc1nc2c(OC)cnc(OC)n2n1 [Compound 1, 3-Methoxy-N-(5,8-dimethoxy[1,2,4]triazolo[1,5-c]pyrimidin-2-yl)thiophene-2-sulfonamide] as the compound, how does the “ABUTH postemergence injury score 0-100” value ([1]; 3.9 ppm) read?
**A.** 75%

**Q.** And the “VIOTR postemergence injury score 0-100” value ([2]; 3.9 ppm)?
**A.** 70%

**Q.** What about the “IPOHE preemergence injury score 0-100” value ([3]; 17.5 g/Ha) of the same compound?
**A.** 85%

**Q.** What about the “SORBI preemergence injury score 0-100” value ([4]; 17.5 g/Ha) of the same compound?
**A.** 100%

**Q.** And the “ALOMY postemergence injury score 0-100” value ([5]; 3.9 ppm)?
**A.** 95%

**Q.** What about the “DIGSA preemergence injury score 0-100” value ([6]; 17.5 g/Ha) of the same compound?
**A.** 100%

**Q.** What about the “XANST preemergence injury score 0-100” value ([7]; 17.5 g/Ha) of the same compound?
**A.** 70%

**Q.** And the “EPHHL preemergence injury score 0-100” value ([8]; 17.5 g/Ha)?
**A.** 100%

**Q.** What about the “AMARE postemergence injury score 0-100” value ([9]; 3.9 ppm) of the same compound?
**A.** 95%

**Q.** And the “STEME postemergence injury score 0-100” value ([10]; 3.9 ppm)?
**A.** 75%

**Q.** What about the “POLCO postemergence injury score 0-100” value ([11]; 3.9 ppm) of the same compound?
**A.** 98%

**Q.** What about the “IPOHE postemergence injury score 0-100” value ([12]; 3.9 ppm) of the same compound?
**A.** 85%

**Q.** What about the melting point of the same compound?
**A.** 227 to 228 °C

**Q.** And the “ECHCG preemergence injury score 0-100” value ([13]; 17.5 g/Ha)?
**A.** 100%

**Q.** What about the “XANST postemergence injury score 0-100” value ([14]; 3.9 ppm) of the same compound?
**A.** 50%

**Q.** And the “AVEFA preemergence injury score 0-100” value ([15]; 17.5 g/Ha)?
**A.** 100%

**Q.** What about the “CHEAL preemergence injury score 0-100” value ([16]; 17.5 g/Ha) of the same compound?
**A.** 98%

**Q.** And the “SETFA postemergence injury score 0-100” value ([17]; 3.9 ppm)?
**A.** 100%

**Q.** What about the “SETFA preemergence injury score 0-100” value ([18]; 17.5 g/Ha) of the same compound?
**A.** 100%

**Q.** What about the “SORBI postemergence injury score 0-100” value ([19]; 3.9 ppm) of the same compound?
**A.** 98%

**Q.** What about the “CHEAL postemergence injury score 0-100” value ([20]; 3.9 ppm) of the same compound?
**A.** 75%

**Q.** What about the “ALOMY preemergence injury score 0-100” value ([21]; 17.5 g/Ha) of the same compound?
**A.** 100%

**Q.** What about the “ABUTH preemergence injury score 0-100” value ([22]; 17.5 g/Ha) of the same compound?
**A.** 98%

**Q.** And the “AVEFA postemergence injury score 0-100” value ([23]; 3.9 ppm)?
**A.** 99%

**Q.** And the “AMARE preemergence injury score 0-100” value ([24]; 17.5 g/Ha)?
**A.** 100%

**Q.** Which “ABUTH postemergence injury score 0-100” value ([1]; 31.3 ppm) does the source give for COc1csc(C)c1S(=O)(=O)Nc1nc2c(Cl)cnc(OC)n2n1 [Compound 22] here?
**A.** 70%

**Q.** What about the “VIOTR postemergence injury score 0-100” value ([2]; 31.3 ppm) of the same compound?
**A.** 80%

**Q.** And the “IPOHE preemergence injury score 0-100” value ([3]; 35 g/Ha)?
**A.** 98%

**Q.** And the “SORBI preemergence injury score 0-100” value ([4]; 35 g/Ha)?
**A.** 100%

**Q.** What about the “ALOMY postemergence injury score 0-100” value ([5]; 31.3 ppm) of the same compound?
**A.** 60%

**Q.** What about the “DIGSA preemergence injury score 0-100” value ([6]; 35 g/Ha) of the same compound?
**A.** 98%

**Q.** What about the “XANST preemergence injury score 0-100” value ([7]; 35 g/Ha) of the same compound?
**A.** 80%

**Q.** What about the “EPHHL preemergence injury score 0-100” value ([8]; 35 g/Ha) of the same compound?
**A.** 80%

**Q.** What about the “AMARE postemergence injury score 0-100” value ([9]; 31.3 ppm) of the same compound?
**A.** 100%

**Q.** And the “STEME postemergence injury score 0-100” value ([10]; 31.3 ppm)?
**A.** 80%

**Q.** And the “POLCO postemergence injury score 0-100” value ([11]; 31.3 ppm)?
**A.** 90%

**Q.** And the “IPOHE postemergence injury score 0-100” value ([12]; 31.3 ppm)?
**A.** 90%

**Q.** What about the “ECHCG preemergence injury score 0-100” value ([13]; 35 g/Ha) of the same compound?
**A.** 100%

**Q.** And the “XANST postemergence injury score 0-100” value ([14]; 31.3 ppm)?
**A.** 90%

**Q.** And the “AVEFA preemergence injury score 0-100” value ([15]; 35 g/Ha)?
**A.** 70%

**Q.** What about the “CHEAL preemergence injury score 0-100” value ([16]; 35 g/Ha) of the same compound?
**A.** 98%

**Q.** What about the “SETFA postemergence injury score 0-100” value ([17]; 31.3 ppm) of the same compound?
**A.** 80%

**Q.** What about the “SETFA preemergence injury score 0-100” value ([18]; 35 g/Ha) of the same compound?
**A.** 100%

**Q.** What about the “SORBI postemergence injury score 0-100” value ([19]; 31.3 ppm) of the same compound?
**A.** 95%

**Q.** And the “CHEAL postemergence injury score 0-100” value ([20]; 31.3 ppm)?
**A.** 90%

**Q.** And the “ALOMY preemergence injury score 0-100” value ([21]; 35 g/Ha)?
**A.** 70%

**Q.** And the “ABUTH preemergence injury score 0-100” value ([22]; 35 g/Ha)?
**A.** 100%

**Q.** What about the “AVEFA postemergence injury score 0-100” value ([23]; 31.3 ppm) of the same compound?
**A.** 50%

**Q.** What about the “AMARE preemergence injury score 0-100” value ([24]; 35 g/Ha) of the same compound?
**A.** 100%
